From US11345666B2, “Phenyl and pyridinyl substituted imidazoles as modulators of RORγT” (Janssen Pharmaceutica NV, priority 2018, dated 2022)
Marks after values point to notes of the source that are not given here.

Assays:
[1] = target: human RORγt ligand binding domain (RORγt LBD) (Homo sapiens (Human), UniProt P51449); test: RORγt ThermoFluor assay
How it was run: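 Thermal shift of His-tagged human RORγt LBD (0.065 mg/mL) with 60 μM 1,8-ANS in 100 mM Hepes pH 7.0, 10 mM NaCl, 2.5 mM GSH, 0.002% Tween-20, heated at 1° C./min. Compounds in 1:2 series from a 10 mM DMSO stock; KD estimated from ΔTm using protein unfolding thermodynamics.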

full-length human RORγt = full-length human RORγt (Homo sapiens (Human), UniProt P51449); test: RORγt (full-length human) reporter assay, conditions A or B; format: cell-based; details: for IC50: HEK293T cells, read-out: RORγt (FL) Reporter Assay A or B, IC50; for inhibition at 6 µM: read-out: RORγt (FL) Reporter Assay A or B, % inhibition @ 6 μM, 6 μM compound concentration; for inhibition at 2 µM: 2 μM compound concentration (**); for inhibition at 2 µM / inhibition at 0.67 µM / inhibition at 0.22 µM: read-out: RORγt (FL) Reporter Assay A or B, % inhibition; for inhibition at 0.22 µM: 0.22 μM compound concentration (******)
Chain of full-length human RORγt (P51449 other isoform, or with tags, fused parts or gaps): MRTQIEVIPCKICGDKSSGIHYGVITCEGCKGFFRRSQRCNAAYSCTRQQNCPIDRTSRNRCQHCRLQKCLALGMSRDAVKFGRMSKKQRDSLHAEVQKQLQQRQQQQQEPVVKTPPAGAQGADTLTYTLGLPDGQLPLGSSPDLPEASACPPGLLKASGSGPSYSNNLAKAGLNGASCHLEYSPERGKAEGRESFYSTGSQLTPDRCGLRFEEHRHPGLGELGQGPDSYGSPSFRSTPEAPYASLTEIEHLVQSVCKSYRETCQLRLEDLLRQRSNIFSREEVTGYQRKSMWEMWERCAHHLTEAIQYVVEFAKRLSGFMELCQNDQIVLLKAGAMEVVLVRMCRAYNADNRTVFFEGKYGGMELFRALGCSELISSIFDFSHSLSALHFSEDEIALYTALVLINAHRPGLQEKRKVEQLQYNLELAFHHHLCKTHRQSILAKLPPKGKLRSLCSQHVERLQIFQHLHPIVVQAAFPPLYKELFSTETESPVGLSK
How it was run: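 HEK293T cells transiently co-transfected (PEI) with GAL4-DBD–RORγt, GAL4-firefly luciferase and CMV-Renilla reporters; condition A 35,000 cells/well, 170.5 ng DNA/well; condition B 8750 cells/well, 42.6 ng DNA/well.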

[2] = 0.67 μM compound concentration (****)

Chain of human RORγt ligand binding domain (RORγt LBD) (P51449 other isoform, or with tags, fused parts or gaps): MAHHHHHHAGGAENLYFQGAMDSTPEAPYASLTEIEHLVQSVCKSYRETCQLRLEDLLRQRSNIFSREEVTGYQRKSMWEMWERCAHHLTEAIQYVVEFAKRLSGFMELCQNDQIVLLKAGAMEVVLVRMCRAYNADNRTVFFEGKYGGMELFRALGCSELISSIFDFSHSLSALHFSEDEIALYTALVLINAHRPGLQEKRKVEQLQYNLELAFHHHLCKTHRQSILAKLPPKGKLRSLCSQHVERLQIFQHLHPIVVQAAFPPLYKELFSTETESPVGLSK

Compound	Kd [1] [nM]	IC50 (full-length human RORγt) [nM]	inhibition at 6 µM (full-length human RORγt) [%]	inhibition at 2 µM (full-length human RORγt) [%]	inhibition at 0.67 µM (full-length human RORγt; [2]) [%]	RORγt (FL) Reporter Assay A or B, % inhibition (full-length human RORγt; [2])	inhibition at 0.22 µM (full-length human RORγt) [%]
CCc1nc(C(=O)NC[C@]2(O)CC[C@@H](S(C)(=O)=O)CC2)c(C#N)n1-c1ccc(CCC(F)(F)F)cc1OC(F)F [Example 25, 5-Cyano-1-(2-(difluoromethoxy)-4-(3,3,3-trifluoropropyl)phenyl)-2-ethyl-N-(((1s,4s)-1-hydroxy-4-(methylsulfonyl)cyclohexyl)methyl)-1H-imidazole-4-carboxamide]	84	370	101	–	–	–	–
CCc1nc(C(=O)NC[C@H]2CC[C@H](S(C)(=O)=O)CC2)c(C#N)n1-c1ccc(CCC(F)(F)F)cc1OC(F)F [Example 26, 5-Cyano-1-(2-(difluoromethoxy)-4-(3,3,3-trifluoropropyl)phenyl)-2-ethyl-N-(((1r,4r)-4-(methylsulfonyl)cyclohexyl)methyl)-1H-imidazole-4-carboxamide]	24	54	96	–	–	–	–
[2H]C([2H])([2H])Oc1cc(CC(C)(C)C(F)(F)F)ccc1-n1c(CC)nc(C(=O)NC[C@]2(O)CC[C@@H](S(C)(=O)=O)CC2)c1C#N [Example 28, 5-Cyano-2-ethyl-N-(((1s,4s)-1-hydroxy-4-(methylsulfonyl)cyclohexyl)methyl)-1-(2-(methoxy-d3)-4-(3,3,3-trifluoro-2,2-dimethylpropyl)phenyl)-1H-imidazole-4-carboxamide]	2.5	33	–	102	–	–	–
[2H]C([2H])([2H])Oc1cc(CCC(F)(F)F)ccc1-n1c(CC)nc(C(=O)NC[C@H]2CC[C@H](S(C)(=O)=O)CC2)c1C#N [Example 29, 5-Cyano-2-ethyl-1-(2-(methoxy-d3)-4-(3,3,3-trifluoropropyl)phenyl)-N-(((1r,4r)-4-(methylsulfonyl)cyclohexyl)methyl)-1H-imidazole-4-carboxamide]	15	87	95	–	–	–	–
[2H]C([2H])([2H])Oc1cc(CCC(F)(F)F)ccc1-n1c(CC)nc(C(=O)NC[C@]2(O)CC[C@@H](S(C)(=O)=O)CC2)c1C#N [Example 30, 5-Cyano-2-ethyl-N-(((1s,4s)-1-hydroxy-4-(methylsulfonyl)cyclohexyl)methyl)-1-(2-(methoxy-d3)-4-(3,3,3-trifluoropropyl)phenyl)-1H-imidazole-4-carboxamide]	44	320	96	–	–	–	–
[2H]C([2H])([2H])Oc1cc(CC(C)(C)C(F)(F)F)ccc1-n1c(CC)nc(C(=O)NC[C@]2(C#N)CC[C@@H](S(C)(=O)=O)CC2)c1F [Example 31, N-(((1s*,4s*)-1-Cyano-4-(methylsulfonyl)cyclohexyl)methyl)-2-ethyl-5-fluoro-1-(2-(methoxy-d3)-4-(3,3,3-trifluoro-2,2-dimethylpropyl)phenyl)-1H-imidazole-4-carboxamide]	14	78	–	101	–	–	–
[2H]C([2H])([2H])Oc1cc(CC(C)(C)C(F)(F)F)ccc1-n1c(CC)nc(C(=O)NC[C@]2(O)CC[C@@H](S(C)(=O)=O)CC2)c1F [Example 32, 2-Ethyl-5-fluoro-N-(((1s,4s)-1-hydroxy-4-(methylsulfonyl)cyclohexyl)methyl)-1-(2-(methoxy-d3)-4-(3,3,3-trifluoro-2,2-dimethylpropyl)phenyl)-1H-imidazole-4-carboxamide]	12	71	–	99	–	–	–
[2H]C([2H])([2H])Oc1cc(CC(C)(C)C(F)(F)F)ccc1-n1c(CC)nc(C(=O)NC[C@H]2CC[C@H](S(C)(=O)=O)CC2)c1F [Example 33, 2-Ethyl-5-fluoro-1-(2-(methoxy-d3)-4-(3,3,3-trifluoro-2,2-dimethylpropyl)phenyl)-N-(((1r,4r)-4-(methylsulfonyl)cyclohexyl)methyl)-1H-imidazole-4-carboxamide]	4.8	15	–	–	94	–	–
CCc1nc(C(=O)NC[C@H]2CC[C@H](S(C)(=O)=O)CC2)c(F)n1-c1ccc(CC(C)(C)C(F)(F)F)cc1OC(F)F [Example 34, 1-(2-(Difluoromethoxy)-4-(3,3,3-trifluoro-2,2-dimethylpropyl)phenyl)-2-ethyl-5-fluoro-N-(((1r,4r)-4-(methylsulfonyl)cyclohexyl)methyl)-1H-imidazole-4-carboxamide]	3.5	37	–	98	–	–	–
CCc1nc(C(=O)NC[C@]2(O)CC[C@@H](S(C)(=O)=O)CC2)c(F)n1-c1ccc(CC(C)(C)C(F)(F)F)cc1OC(F)F [Example 35, 1-(2-(Difluoromethoxy)-4-(3,3,3-trifluoro-2,2-dimethylpropyl)phenyl)-2-ethyl-5-fluoro-N-(((1s,4s)-1-hydroxy-4-(methylsulfonyl)cyclohexyl)methyl)-1H-imidazole-4-carboxamide]	11	28	97	–	–	–	–
CCc1nc(C(=O)NC[C@]2(C#N)CC[C@@H](S(C)(=O)=O)CC2)c(C#N)n1-c1ccc(CC(C)(C)C(F)(F)F)cc1OC(F)F [Example 37, 5-Cyano-N-(((1s*,4s*)-1-cyano-4-(methylsulfonyl)cyclohexyl)methyl)-1-(2-(difluoromethoxy)-4-(3,3,3-trifluoro-2,2-dimethylpropyl)phenyl)-2-ethyl-1H-imidazole-4-carboxamide]	0.87	5.3	–	–	–	105**** %	–
CCc1nc(C(=O)NC[C@]2(C#N)CC[C@@H](S(C)(=O)=O)CC2)c(F)n1-c1ccc(CC(C)(C)C(F)(F)F)cc1OC(F)F [Example 38, N-(((1s*,4s*)-1-Cyano-4-(methylsulfonyl)cyclohexyl)methyl)-1-(2-(difluoromethoxy)-4-(3,3,3-trifluoro-2,2-dimethylpropyl)phenyl)-2-ethyl-5-fluoro-1H-imidazole-4-carboxamide]	4.4	19	–	–	97	–	–
C#Cc1c(C(=O)NC[C@]2(C#N)CC[C@@H](S(C)(=O)=O)CC2)nc(CC)n1-c1ccc(CC(C)(C)C(F)(F)F)cc1OC(F)F [Example 39, N-(((1s*,4s*)-1-Cyano-4-(methylsulfonyl)cyclohexyl)methyl)-1-(2-(difluoromethoxy)-4-(3,3,3-trifluoro-2,2-dimethylpropyl)phenyl)-2-ethyl-5-ethynyl-1H-imidazole-4-carboxamide]	0.42	7.9	–	–	101	–	–
C#Cc1c(C(=O)NC[C@]2(O)CC[C@@H](S(C)(=O)=O)CC2)nc(CC)n1-c1ccc(CC(C)(C)C(F)(F)F)cc1OC(F)F [Example 40, 1-(2-(Difluoromethoxy)-4-(3,3,3-trifluoro-2,2-dimethylpropyl)phenyl)-2-ethyl-5-ethynyl-N-(((1s,4s)-1-hydroxy-4-(methylsulfonyl)cyclohexyl)methyl)-1H-imidazole-4-carboxamide]	0.73	3.2	–	105	–	–	–
C#Cc1c(C(=O)NC[C@H]2CC[C@H](S(C)(=O)=O)CC2)nc(CC)n1-c1ccc(CC(C)(C)C(F)(F)F)cc1OC(F)F [Example 41, 1-(2-(Difluoromethoxy)-4-(3,3,3-trifluoro-2,2-dimethylpropyl)phenyl)-2-ethyl-5-ethynyl-N-(((1r,4r)-4-(methylsulfonyl)cyclohexyl)methyl)-1H-imidazole-4-carboxamide]	0.19	2.7	–	–	106	–	–
CCc1nc(C(=O)NC[C@H]2CC[C@H](S(C)(=O)=O)CC2)c(Cl)n1-c1ccc(CC(C)(C)C(F)(F)F)c(OC)c1 [Example 42, 5-Chloro-2-ethyl-1-(3-methoxy-4-(3,3,3-trifluoro-2,2-dimethylpropyl)phenyl)-N-(((1r,4r)-4-(methylsulfonyl)cyclohexyl)methyl)-1H-imidazole-4-carboxamide]	1.1	6.2	–	–	–	–	66
CCc1nc(C(=O)NC[C@]2(O)CC[C@@H](S(C)(=O)=O)CC2)c(Cl)n1-c1ccc(CC(C)(C)C(F)(F)F)c(OC)c1 [Example 43, 5-Chloro-2-ethyl-N-(((1s,4s)-1-hydroxy-4-(methylsulfonyl)cyclohexyl)methyl)-1-(3-methoxy-4-(3,3,3-trifluoro-2,2-dimethylpropyl)phenyl)-1H-imidazole-4-carboxamide]	2.2	3.2	–	–	86	–	–
CCc1nc(C(=O)NC[C@H]2CC[C@H](S(C)(=O)=O)CC2)c(C)n1-c1ccc(CC(C)(C)C(F)(F)F)c(OC)c1 [Example 44, 2-Ethyl-1-(3-methoxy-4-(3,3,3-trifluoro-2,2-dimethylpropyl)phenyl)-5-methyl-N-(((1r,4r)-4-(methylsulfonyl)cyclohexyl)methyl)-1H-imidazole-4-carboxamide]	4.1	31	–	–	–	–	75
CCc1nc(C(=O)NC[C@]2(O)CC[C@@H](S(C)(=O)=O)CC2)c(C)n1-c1ccc(CC(C)(C)C(F)(F)F)c(OC)c1 [Example 45, 2-Ethyl-N-(((1s,4s)-1-hydroxy-4-(methylsulfonyl)cyclohexyl)methyl)-1-(3-methoxy-4-(3,3,3-trifluoro-2,2-dimethylpropyl)phenyl)-5-methyl-1H-imidazole-4-carboxamide]	7.7	11	–	–	77	–	–
